“And” between values parts separate entries of the source, which are not always exact repeats. Identical values can stand only once.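 Dose response: 5 concentrations. Exposure: 48 h. Format: 96-well plates. Endpoint: linear interpolation; highest concentration if not reached. GI50 = concentration required for 50% inhibition of growth. TGI is the concentration that stops growth completely.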
Tests used:
Test in all cases: DTP human tumour cell line panel, 48 h
DMS 273 small cell lung = test system: DMS 273 small cell lung
786-0 renal = test system: 786-0 renal
SK-MEL-5 melanoma = test system: SK-MEL-5 melanoma
UACC-257 melanoma = test system: UACC-257 melanoma
CAKI-1 renal = test system: CAKI-1 renal
K-562 leukemia = test system: K-562 leukemia
OVCAR-5 ovarian = test system: OVCAR-5 ovarian
A549 NSCLC = test system: A549 NSCLC
HT29 colon = test system: HT29 colon
DMS 114 small cell lung = test system: DMS 114 small cell lung

Compound	GI50 (DMS 273 small cell lung)	TGI (DMS 273 small cell lung)	GI50 (786-0 renal)	TGI (786-0 renal)	GI50 (SK-MEL-5 melanoma)	TGI (SK-MEL-5 melanoma)	GI50 (UACC-257 melanoma)	TGI (UACC-257 melanoma)	GI50 (CAKI-1 renal)	TGI (CAKI-1 renal)	GI50 (K-562 leukemia)	TGI (K-562 leukemia)	GI50 (OVCAR-5 ovarian)	TGI (OVCAR-5 ovarian)	GI50 (A549 NSCLC)	TGI (A549 NSCLC)	GI50 (HT29 colon)	TGI (HT29 colon)	TGI (DMS 114 small cell lung)	GI50 (DMS 114 small cell lung)
N.N.N.N.N.NC(=O)c1nn[n-]n1.[Cl-].[Co+3]	> 100 µM	> 100 µM	> 100 µM	> 100 µM	> 100 µM	> 100 µM	> 100 µM	> 100 µM	> 100 µM	> 100 µM	> 100 µM	> 100 µM	> 100 µM	> 100 µM	> 100 µM	> 100 µM	> 100 µM	> 100 µM	–	–
COc1cc(Br)c(C=Nc2cccc3cc(OC)c(OC)cc23)cc1OC	–	> 100 µM	–	> 100 µM	–	> 100 µM	–	> 100 µM	–	> 100 µM	–	> 100 µM	–	> 100 µM	–	> 100 µM	–	98.4 µM	50.4 µM	–
C=C(C)[C@@H]1CC[C@]2(C)CC[C@]3(C)[C@H](CC[C@@H]4[C@@]5(C)CC[C@H](O)C(C)(C)[C@@H]5CC[C@]43C)[C@@H]12	–	> 100 µM	–	> 63.8 µM	–	> 100 µM	–	> 80.8 µM	–	> 100 µM	–	> 68.8 µM	–	> 100 µM	–	> 100 µM	–	> 100 µM	> 100 µM	–
O=C1CC(O)CC(=O)C1=C(O)CCCCCCCCCCc1ccccc1 (centres undefined)	–	> 100 µM	–	> 100 µM	–	> 100 µM	–	> 100 µM	–	> 100 µM	–	> 100 µM	–	> 100 µM	–	> 100 µM	–	> 100 µM	> 100 µM	–
O=C(O)CCN(CCCCN(CCC(=O)O)CCC(=O)O)CCC(=O)O	–	> 100 µM	–	> 100 µM	–	> 100 µM	–	–	–	> 100 µM	–	> 100 µM	–	> 100 µM	–	> 100 µM	–	> 100 µM	> 100 µM	–
COc1ccc(C23C(=O)c4ccccc4N2O[C@H]2C(=O)N(c4ccccc4)C(=O)[C@H]23)cc1 (some centres undefined)	–	> 100 µM	–	> 100 µM	–	> 100 µM	–	> 100 µM	–	> 100 µM	–	> 100 µM	–	> 100 µM	–	> 100 µM	–	> 100 µM	> 100 µM	–
N.N.N.N.[Co+3].[N-]=[N+]=[N-].[N-]=[N+]=[N-].[N-]=[N+]=[N-]	> 100 µM	> 100 µM	> 100 µM	> 100 µM	> 100 µM	> 100 µM	> 100 µM	> 100 µM	–	–	> 100 µM	> 100 µM	> 100 µM	> 100 µM	> 100 µM	> 100 µM	> 100 µM	> 100 µM	–	–
O=C1N(C2CCCCC2)CC12CCCCC2	–	> 100 µM	–	> 100 µM	–	> 100 µM	–	–	–	–	–	> 100 µM	–	–	–	> 100 µM	–	–	> 100 µM	–
Cc1nnn[n-]1.N.N.N.N.N.[Cl-].[Co+3]	> 100 µM	> 100 µM	> 100 µM	> 100 µM	1.86 µM	10.7 µM	> 100 µM	> 100 µM	–	–	> 100 µM	> 100 µM	> 100 µM	> 100 µM	> 100 µM	> 100 µM	> 100 µM	> 100 µM	–	–
CSC(=Nc1nnc(-c2ccc([N+](=O)[O-])cc2)s1)SC	–	> 100 µM	–	55.5 µM	–	> 100 µM	–	> 100 µM	–	38.4 µM	–	> 100 µM	–	> 100 µM	–	> 100 µM	–	> 100 µM	> 82 µM	–
CC1(C)O[C@H]2[C@H](O)C[C@](O)(CO)C[C@H]2O1	–	> 100 µM	–	> 100 µM	–	> 100 µM	–	> 100 µM	–	> 100 µM	–	> 100 µM	–	> 100 µM	–	> 100 µM	–	> 100 µM	> 100 µM	–
NC(=O)C(=O)N/N=C1\C(=O)N(c2ccc(Cl)cc2Cl)C(=O)C1C(=O)Nc1ccc(Cl)cc1Cl (centres undefined)	–	> 100 µM	–	> 100 µM	–	> 100 µM	–	> 100 µM	–	> 100 µM	–	> 100 µM	–	> 100 µM	–	> 100 µM	–	> 100 µM	> 100 µM	–
O=C(O)CN(CC(=O)O)Cc1cc(C#Cc2ccc(C#Cc3ccccc3)cc2)cc(CN(CC(=O)O)CC(=O)O)n1	–	23.5 µM	–	47.1 µM	–	> 71.5 µM	–	> 89.1 µM	–	61.9 µM	–	> 67.5 µM	–	> 81.6 µM	–	> 100 µM	–	> 100 µM	47 µM	–
O=[N+]([O-])c1ccc(C[P+](c2ccccc2)(c2ccccc2)c2ccccc2)cc1	–	> 100 µM	–	> 100 µM	–	> 100 µM	–	47.3 µM	–	–	–	> 100 µM	–	> 100 µM	–	> 100 µM	–	> 100 µM	> 100 µM	–
CCOC(=O)C12CCCC1(O)N(NC(=O)OC(C)(C)C)C(C)=C2C(=O)OC (centres undefined)	–	> 100 µM	–	> 100 µM	–	–	–	> 100 µM	–	> 100 µM	–	> 100 µM	–	> 100 µM	–	> 100 µM	–	> 100 µM	> 100 µM	–
CCCCCCCCCCCc1nnc(N)o1	–	> 100 µM	–	> 100 µM	–	–	–	> 100 µM	–	–	–	> 100 µM	–	> 100 µM	–	> 100 µM	–	> 100 µM	–	–
CN(O)C(=O)SCC(NC(=O)CCC(N)C(=O)O)C(=O)NCC(=O)O (centres undefined)	> 2000 µM	> 2000 µM	> 2000 µM	> 2000 µM	> 2000 µM	> 2000 µM	> 2000 µM	> 2000 µM	> 2000 µM	> 2000 µM	> 2 µM and 812 µM	> 2000 µM	–	> 2 µM	> 2000 µM	> 2000 µM	> 2000 µM	> 2000 µM	> 2000 µM	> 2000 µM
